Measurements from article PMC10165273, “Itch receptor MRGPRX4 interacts with the receptor activity–modifying proteins” (The Journal of Biological Chemistry, 2023).
Values joined by “and” are separate entries in the source; they are usually repeats but may differ in a detail not shown here. Equal values may be shown once. Read-outs that look alike come from different tables or passages of the source.

Biological target: T1, MRGPRX4 + RAMP1 (Homo sapiens, UniProt Q96LA9)
T1 construct: expressed in transfected cells; host or cells: HEK293T
Assay: IP1 accumulation, MRGPRX4 coexpressed with RAMP1
Format: cell-based
Set-up: key to IP1 Basal / response to agonist, X4:ramp1.I:1 / response to agonist, X4:ramp1.I:2 / response to agonist, X4:ramp1.I:0.25 / response to agonist, X4:ramp1.I:0.5: % IP1; unstimulated mock = 0%, fully stimulated MRGPRX4 = 100%; potency: unit not given here
Conditions: for activation at 20 µM / activation at 4 µM / activation at 0.8 µM / activation at […] / activation at 0.032 µM / activation at 100 µM: 2 h, Fig S3a, read-out: IP1 accumulation; for activation at 20 µM: log [Nateglinide] (M) -4.69897; for activation at 4 µM: log [Nateglinide] (M) -5.39794; for activation at 0.8 µM: log [Nateglinide] (M) -6.09691; for activation at […]: log [Nateglinide] (M) -6.79588; for activation at 0.032 µM: log [Nateglinide] (M) -7.49485; for activation at 100 µM: log [Nateglinide] (M) -4; for Emax: Figure 4a bottom, MRGPRX4 alone = 100, read-out: efficacy; for EC50: read-out: potency (converted)
Procedure: HEK293T cells were transfected with 1 pg/cell of MRGPRX4 DNA, and the amount of DNA was kept constant at 2 pg/cell with pcDNA3.1(+) empty vector, unless otherwise specified. Twenty four hours after transfection, IP1 assay was performed as previously described ([51]). When applicable, cells were treated with 1 μM YM254890 (YM) or different concentrations of U73122 for 1 h prior to addition of agonist or buffer. After incubation for 2 h, HTRF reagents and IP1 calibration standards were added and incubated for 2 h in the dark at room temperature. Time-resolved fluorescence signals were read on the BioTek Synergy NEO-TRF Hybrid multi-mode reader (BioTek Instruments). All data were carried out in three independent experiments with three technical replicate each.
For a homogenous transfection of MRGPRX4, a master mix of MRGPRX4 DNA was made prior to addition of the RAMP DNA. […]
Data reduction, standard calibration, and transformation of HTRF data were performed as previously described ([51]). Normalized IP1 values were calculated relative to the unstimulated mock-transfected cells (set to 0%) and fully stimulated MRGPRX4 (alone if applicable) (set to 100%).

[1] = Figure 4a top, DNA ratio MRGPRX4:RAMP1 1:0.5, individual replicates

T1 sequence (Q96LA9 whole entry): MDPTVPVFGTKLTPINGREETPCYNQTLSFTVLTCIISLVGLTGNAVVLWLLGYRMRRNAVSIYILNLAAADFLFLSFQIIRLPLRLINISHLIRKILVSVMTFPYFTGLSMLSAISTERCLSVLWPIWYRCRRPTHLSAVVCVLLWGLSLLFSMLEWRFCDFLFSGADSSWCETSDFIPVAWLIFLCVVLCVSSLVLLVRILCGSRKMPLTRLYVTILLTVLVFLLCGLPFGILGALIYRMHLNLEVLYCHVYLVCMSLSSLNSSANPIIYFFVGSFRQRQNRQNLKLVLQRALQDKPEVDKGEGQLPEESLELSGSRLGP

CC(C)[C@H]1CC[C@H](C(=O)N[C@H](Cc2ccccc2)C(=O)O)CC1 [Nateglinide]
activation at 20 µM (ratio MRGPRX4:RAMP1 1:0.25): 76.7% | activation at 4 µM (ratio MRGPRX4:RAMP1 1:0.25): 42.2% | activation at 0.8 µM (ratio MRGPRX4:RAMP1 1:0.25): 29.4% | activation at […] (ratio MRGPRX4:RAMP1 1:0.25): 26.1% | activation at 0.032 µM (ratio MRGPRX4:RAMP1 1:0.25): 24% | activation at 100 µM (ratio MRGPRX4:RAMP1 1:1): 114% | activation at 20 µM (ratio MRGPRX4:RAMP1 1:1): 87.9% | activation at 4 µM (ratio MRGPRX4:RAMP1 1:1): 43.7% | activation at 0.8 µM (ratio MRGPRX4:RAMP1 1:1): 22.8% | activation at […] (ratio MRGPRX4:RAMP1 1:1): 17.6% | activation at 0.032 µM (ratio MRGPRX4:RAMP1 1:1): 16% | activation at 100 µM (ratio MRGPRX4:RAMP1 1:2): 117% | activation at 20 µM (ratio MRGPRX4:RAMP1 1:2): 93.3% | activation at 4 µM (ratio MRGPRX4:RAMP1 1:2): 44.8% | activation at 0.8 µM (ratio MRGPRX4:RAMP1 1:2): 18.6% | activation at […] (ratio MRGPRX4:RAMP1 1:2): 14.5% | activation at 0.032 µM (ratio MRGPRX4:RAMP1 1:2): 12.5% | activation at 100 µM (ratio MRGPRX4:RAMP 1:0.5): 113% | activation at 20 µM (ratio MRGPRX4:RAMP 1:0.5): 93.7% | activation at 4 µM (ratio MRGPRX4:RAMP 1:0.5): 46.5% | activation at 0.8 µM (ratio MRGPRX4:RAMP 1:0.5): 24.4% | activation at […] (ratio MRGPRX4:RAMP 1:0.5): 18.5% | activation at 0.032 µM (ratio MRGPRX4:RAMP 1:0.5): 18.7% | Emax (DNA ratio MRGPRX4:RAMP1 1:0.25): 109% | Emax (DNA ratio MRGPRX4:RAMP1 1:0.5): 115% | Emax (DNA ratio MRGPRX4:RAMP1 1:0.75): 118% | Emax (DNA ratio MRGPRX4:RAMP1 1:1): 126% | EC50 (Figure 4a top, DNA ratio MRGPRX4:RAMP1 1:0.25, individual replicates): 11.1 µM and 9.42 µM and 15.2 µM | potency [1]: 5.042 | EC50 [1]: 10.5 µM | EC50 (Figure 4a top, DNA ratio MRGPRX4:RAMP1 1:0.75, individual replicates): 10.7 µM and 11.9 µM and 6.64 µM | EC50 (Figure 4a top, DNA ratio MRGPRX4:RAMP1 1:1, individual replicates): 9.29 µM and 9.23 µM | response to agonist, X4:ramp1.I:0.25 (Figure 4c-f, agonist 100µM, X4:ramp1 1:0.25, MRGPRX4 = 100): 94.0571 and 91.2695 | response to agonist, X4:ramp1.I:0.5 (Figure 4c-f, agonist 100µM, X4:ramp1 1:0.5, MRGPRX4 = 100): 83.4975 and 100.084 | response to agonist, X4:ramp1.I:1 (Figure 4c-f, agonist 100µM, X4:ramp1 1:1, MRGPRX4 = 100): 101.298 and 92.1048 | response to agonist, X4:ramp1.I:2 (Figure 4c-f, agonist 100µM, X4:ramp1 1:2, MRGPRX4 = 100): 90.9768 and 105.34
